From patent US20220153741A1, “HETEROCYCLIC COMPOUNDS AS INHIBITORS OF KRAS G12C” (Guangdong Newopp Biopharmaceuticals Co., Ltd., priority 2019, published 2022)

How the values were obtained:
Type in all cases: cell-based
[1] = tested on: NCI-H358 (H358, KRAS G12C) cancer cell line; test: 3D proliferation assay, NCI-H358 (CellTiter-Glo); conditions: 96-well spheroid plate, 4 days
Protocol: (§1) 3D proliferation assay: NCI-H358 (H358, KRAS G12C) and LS513 (KRAS G12D) cancer cell lines were obtained from ATCC (American Type Culture Collection, VA). Cells were plated in 96-well spheroid plate (CORNING INC, NY)) in RPMI-1640 with 10% FBS. Compounds (11-point dilutions) and DMSO were added to the wells and incubated with cells for 4 days at 37° C. Cell viability was then determined by CellTiter-Glo (Promega, WI). IC50 values of compounds were determined as the concentration of 50% inhibition of cell viability compared to DMSO treated cells (A: IC50<0.1 μM; B: IC50 between 0.1 μM and 1 μM; C: IC50 between 1 μM and 10 μM; D: >10 μM; ND: not determined).

[2] = tested on: LS513 (KRAS G12D) cancer cell line; test: 3D proliferation assay, LS513 (CellTiter-Glo); conditions: 96-well spheroid plate, 4 days
Protocol: as §1

[3] = tested on: pERK1/2 in NCI-H358 cells; test: Phospho-ERK (pERK) assay in NCI-H358 cells; conditions: Homo sapiens, NCI-H358, 3 h, 3 hours compound treatment, pERK1/2 antibody fluorescence
Protocol: Phospho-ERK (pERK) assay: NCI-H358 cells were seeded in 96-well plates (Greiner) in RPMI-1640 with 10% FBS 16 hours prior to compound treatment. Serial dilution of compounds was made and added to wells, and then incubated at 37° C. for 3 hours. After the treatment, cells were fixed with 3.7% formaldehyde (VWR) for 20 min at RT, followed by being permeabilized with ice-cold methanol at −20° C. for 20 min. The methanol was then dumped and replaced with Intercept® (PBS) Blocking Buffer (LiCOR) supplemented with 0.05% Tween-20 and incubated at RT for 1 hour with gentle rocking. The blocking buffer was then replaced with the blocking buffer containing pERK1/2 antibody (Cell Signaling) and incubated at 4° C. overnight with gentle rocking. The plate was washed 5 times with 1×PBS+0.1% Tween-20. The blocking buffer containing LiCOR IRDye 680RD secondary antibody (LiCOR,) was then added and incubated for 1 hour at RT with gentle rocking. After washing 5 times with 1×PBS+0.1% Tween-20, the plate was read using CLARIOstar plate reader (BMG LABTECH GmbH). IC50 values were determined as the concentration of 50% inhibition of the fluorescence signal compared to DMSO treated cells (A: IC50<0.1 μM; B: IC50 between 0.1 μM and 1 μM; C: IC50 between 1 μM and 10 μM; D: >10 μM; ND: not determined).

Row | Structure (SMILES) | IC50 [1] [µM] | IC50 [2] [µM] | IC50 [3] [µM] | IC50 ([2]; Homo sapiens, LS-513, 96 h) [µM] | IC50 ([1]; Homo sapiens, NCI-H358, 96 h) [µM]
1 | C=CC(=O)N1CCN(c2nc(=O)n3c4nc(c(F)cc24)-c2c(F)cccc2NCCCc2ccnc(C(C)C)c2-3)[C@@H](C)C1 (single isomer, unassigned) [Example 2A] | < 0.1 | > 10 | < 0.1 |  | 
2 | C=C(F)C(=O)N1C[C@H](C)N(c2nc(=O)n3c4nc(c(F)cc24)-c2c(F)cccc2NCCCc2ccnc(C(C)C)c2-3)C[C@H]1C (single isomer, unassigned) [Example 6A] | > 10 |  |  |  | 
3 | C=C(F)C(=O)N1C[C@H](C)N(c2nc(=O)n3c4nc(c(F)cc24)-c2c(F)cccc2NCCCc2ccnc(C(C)C)c2-3)C[C@H]1C (single isomer, unassigned) [Example 6B] | 0.1 to 1 |  |  | > 10 | 
4 | C=CC(=O)N1C[C@H](C)N(c2nc(=O)n3c4nc(c(F)cc24)-c2c(F)cccc2NCCCNc2cccc(C(C)C)c2-3)C[C@H]1C (single isomer, unassigned) [Example 23B] | 0.1 to 1 | 1 to 10 |  |  | 
5 | C=CC(=O)N1CCN(c2nc(=O)n3c4nc(c(F)cc24)-c2c(F)cccc2NC(=O)CCc2ccnc(C(C)C)c2-3)C[C@@H]1CC#N [Example 3, (S)-2-(1-acryloyl-4-(2^6,3^6-difluoro-1^2-isopropyl-2^2,5-dioxo-2^1,2^2-dihydro-4-aza-2(1,7)-pyrido[2,3-d]pyrimidina-1(3,4)-pyridina-3(1,2)-benzenacycloheptaphane-2^4-yl)piperazin-2-yl)acetonitrile] |  |  |  |  | 1 to 10
6 | C=CC(=O)N1CCN(c2nc(=O)n3c4nc(c(F)cc24)-c2c(F)cccc2N(C(C)=O)CCCc2ccnc(C(C)C)c2-3)[C@@H](C)C1 [Example 12, (S)-4-acetyl-2^4-(4-acryloyl-2-methylpiperazin-1-yl)-2^6,3^6-difluoro-1^2-isopropyl-2^1,2^2-dihydro-4-aza-2(1,7)-pyrido[2,3-d]pyrimidina-1(3,4)-pyridina-3(1,2)-benzenacycloheptaphan-2^2-one] |  |  |  | > 10 | 0.1 to 1
7 | C=CC(=O)N1CCN(c2nc(=O)n3c4nc(c(F)cc24)-c2c(F)cccc2N(C(=O)N(C)C)CCCc2ccnc(C(C)C)c2-3)[C@@H](C)C1 [Example 13, (S)-2^4-(4-acryloyl-2-methylpiperazin-1-yl)-2^6,3^6-difluoro-1^2-isopropyl-N,N-dimethyl-2^2-oxo-2^1,2^2-dihydro-4-aza-2(1,7)-pyrido[2,3-d]pyrimidina-1(3,4)-pyridina-3(1,2)-benzenacycloheptaphane-4-carboxamide] |  |  |  |  | 0.1 to 1
8 | C=CC(=O)N1CCN(c2nc(=O)n3c4nc(c(F)cc24)-c2c(F)cccc2N(C(=O)c2cccnc2)CCCc2ccnc(C(C)C)c2-3)[C@@H](C)C1 [Example 14, (S)-2^4-(4-acryloyl-2-methylpiperazin-1-yl)-2^6,3^6-difluoro-1^2-isopropyl-4-nicotinoyl-2^1,2^2-dihydro-4-aza-2(1,7)-pyrido[2,3-d]pyrimidina-1(3,4)-pyridina-3(1,2)-benzenacycloheptaphan-2^2-one] |  |  |  |  | 1 to 10
9 | C=CC(=O)N1CCN(c2nc(=O)n3c4nc(c(F)cc24)-c2c(F)cccc2N(C)C(=O)NCCc2ccnc(C(C)C)c2-3)[C@@H](C)C1 [Example 16, (S)-2^4-(4-acryloyl-2-methylpiperazin-1-yl)-2^6,3^6-difluoro-1^2-isopropyl-4-methyl-2^1,2^2-dihydro-4,6-diaza-2(1,7)-pyrido[2,3-d]pyrimidina-1(3,4)-pyridina-3(1,2)-benzenacyclooctaphane-2^2,5-dione] |  |  |  |  | 1 to 10
10 | C=CC(=O)N1CCN(c2nc(=O)n3c4nc(c(F)cc24)-c2c(F)cccc2NC(=O)CCc2cccc(C(C)C)c2-3)[C@@H](C)C1 [Example 18, (S)-2^4-(4-acryloyl-2-methylpiperazin-1-yl)-2^6,3^6-difluoro-1^6-isopropyl-2^1,2^2-dihydro-4-aza-2(1,7)-pyrido[2,3-d]pyrimidina-1,3(1,2)-dibenzenacycloheptaphane-2^2,5-dione] |  |  |  | > 10 | 0.1 to 1
11 | C=CC(=O)N1CCN(c2nc(=O)n3c4nc(c(F)cc24)-c2c(F)cccc2NC(=O)CCN(C)c2cccc(C(C)C)c2-3)C(C)C1 [Example 29, (S)-2^4-(4-acryloyl-2-methylpiperazin-1-yl)-2^6,3^6-difluoro-1^6-isopropyl-8-methyl-2^1,2^2-dihydro-4,8-diaza-2(1,7)-pyrido[2,3-d]pyrimidina-1,3(1,2)-dibenzenacyclooctaphane-2^2,5-dione] | < 0.1 | > 10 |  |  | 

The remaining lines, values ahead:

Row | IC50 [1] [µM] | IC50 [2] [µM] | IC50 [3] [µM] | IC50 ([2]; Homo sapiens, LS-513, 96 h) [µM] | IC50 ([1]; Homo sapiens, NCI-H358, 96 h) [µM] | Structure (SMILES)
12 |  | > 10 |  |  | < 0.1 | C=CC(=O)N1C[C@H](C)N(c2nc(=O)n3c4nc(c(F)cc24)-c2c(F)cccc2NCCCNc2cccc(C(C)C)c2-3)C[C@H]1C (single isomer, unassigned) [Example 23A]
13 |  |  |  | > 10 | < 0.1 | C=CC(=O)N1CCN(c2nc(=O)n3c4nc(c(F)cc24)-c2c(F)cccc2NCCCc2ccnc(C(C)C)c2-3)[C@@H](C)C1 [Example 2, (S)-2^4-(4-acryloyl-2-methylpiperazin-1-yl)-2^6,3^6-difluoro-1^2-isopropyl-2^1,2^2-dihydro-4-aza-2(1,7)-pyrido[2,3-d]pyrimidina-1(3,4)-pyridina-3(1,2)-benzenacycloheptaphan-2^2-one]
14 |  |  |  |  | 0.1 to 1 | C=CC(=O)N1CCN(c2nc(=O)n3c4nc(c(F)cc24)-c2c(F)cccc2NC(=O)NCCc2ccnc(C(C)C)c2-3)[C@@H](C)C1 [Example 5, (S)-2^4-(4-acryloyl-2-methylpiperazin-1-yl)-2^6,3^6-difluoro-1^2-isopropyl-2^1,2^2-dihydro-4,6-diaza-2(1,7)-pyrido[2,3-d]pyrimidina-1(3,4)-pyridina-3(1,2)-benzenacyclooctaphane-2^2,5-dione]
15 |  |  |  | > 10 | 0.1 to 1 | C=C(F)C(=O)N1CCN(c2nc(=O)n3c4nc(c(F)cc24)-c2c(F)cccc2NCCCc2ccnc(C(C)C)c2-3)[C@@H](C)C1 [Example 11, (S)-2^6,3^6-difluoro-2^4-(4-(2-fluoroacryloyl)-2-methylpiperazin-1-yl)-1^2-isopropyl-2^1,2^2-dihydro-4-aza-2(1,7)-pyrido[2,3-d]pyrimidina-1(3,4)-pyridina-3(1,2)-benzenacycloheptaphan-2^2-one]
16 |  |  |  | > 10 | < 0.1 | C=CC(=O)N1CCN(c2nc(=O)n3c4nc(c(F)cc24)-c2c(F)cccc2NC(=O)CCNc2cccc(C(C)C)c2-3)[C@@H](C)C1 [Example 21, (S)-2^4-(4-acryloyl-2-methylpiperazin-1-yl)-2^6,3^6-difluoro-1^6-isopropyl-2^1,2^2-dihydro-4,8-diaza-2(1,7)-pyrido[2,3-d]pyrimidina-1,3(1,2)-dibenzenacyclooctaphane-2^2,5-dione]
17 |  |  |  | > 10 | < 0.1 | C=CC(=O)N1C[C@H](C)N(c2nc(=O)n3c4nc(c(F)cc24)-c2c(F)cccc2NC(=O)CCNc2cccc(C(C)C)c2-3)C[C@H]1C [Example 24A, 2^4-((2S,5R)-4-acryloyl-2,5-dimethylpiperazin-1-yl)-2^6,3^6-difluoro-1^6-isopropyl-2^1,2^2-dihydro-4,8-diaza-2(1,7)-pyrido[2,3-d]pyrimidina-1,3(1,2)-dibenzenacyclooctaphane-2^2,5-dione]
18 |  |  |  | > 10 | < 0.1 | C=CC(=O)N1CCN(c2nc(=O)n3c4nc(c(F)cc24)-c2c(F)cccc2NC(=O)CNc2cccc(C(C)C)c2-3)[C@@H](C)C1 [Example 25, (S)-2^4-(4-acryloyl-2-methylpiperazin-1-yl)-2^6,3^6-difluoro-1^6-isopropyl-2^1,2^2-dihydro-4,7-diaza-2(1,7)-pyrido[2,3-d]pyrimidina-1,3(1,2)-dibenzenacycloheptaphane-2^2,5-dione]
19 |  |  |  | > 10 | < 0.1 | C=CC(=O)N1C[C@H](C)N(c2nc(=O)n3c4nc(c(F)cc24)-c2c(F)cccc2NC(=O)CNc2cccc(C(C)C)c2-3)C[C@H]1C [Example 26, 2^4-((2S,5R)-4-acryloyl-2,5-dimethylpiperazin-1-yl)-2^6,3^6-difluoro-1^6-isopropyl-2^1,2^2-dihydro-4,7-diaza-2(1,7)-pyrido[2,3-d]pyrimidina-1,3(1,2)-dibenzenacycloheptaphane-2^2,5-dione]
20 |  |  |  | > 10 | < 0.1 | C=CC(=O)N1C[C@H](C)N(c2nc(=O)n3c4nc(c(F)cc24)-c2c(F)cccc2NC(=O)CCN(C)c2cccc(C(C)C)c2-3)C[C@H]1C [Example 30, 2^4-((2S,5R)-4-acryloyl-2,5-dimethylpiperazin-1-yl)-2^6,3^6-difluoro-1^6-isopropyl-8-methyl-2^1,2^2-dihydro-4,8-diaza-2(1,7)-pyrido[2,3-d]pyrimidina-1,3(1,2)-dibenzenacyclooctaphane-2^2,5-dione]
